Consider two compounds from ChEMBL document CHEMBL4482301, “Methods to identify modulators” (2012).

SMILES strings stand for the structures.

What all share (type): functional, cell-based
Assay [1] addresses T1, Taste receptor type 2 member 7 (Homo sapiens) (UniProt Q9NYW3).
T1 sequence (whole entry): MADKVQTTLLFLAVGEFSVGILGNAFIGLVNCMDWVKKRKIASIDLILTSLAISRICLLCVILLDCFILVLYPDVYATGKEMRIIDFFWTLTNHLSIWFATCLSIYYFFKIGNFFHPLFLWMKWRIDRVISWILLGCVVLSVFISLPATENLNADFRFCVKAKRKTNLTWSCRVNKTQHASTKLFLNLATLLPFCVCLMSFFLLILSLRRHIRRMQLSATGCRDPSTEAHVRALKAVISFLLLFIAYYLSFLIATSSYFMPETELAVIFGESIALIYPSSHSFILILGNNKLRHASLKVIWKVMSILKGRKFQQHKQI
The experiment in a line: Agonist activity at N-terminal rat ST3 receptor-fused full length human TAS2R7 transiently expressed in HEK293T cells co-expressing Galpha16gust44 assessed as increase in intracellular calcium level by measuring deltaF/F0 ratio level at 0.08 mM by Fluo-4AM dye based FLIPR assay. In general terms: A change in cytosolic calcium serves as a functional read-out for many receptors and channels.

Assay [2] has as its target T1, Taste receptor type 2 member 7 (Homo sapiens). The experiment in a line: Agonist activity at N-terminal rat ST3 receptor-fused full length human TAS2R7 transiently expressed in HEK293T cells co-expressing Galpha16gust44 assessed as increase in intracellular calcium level by measuring deltaF/F0 ratio level at 0.04 mM by Fluo-4AM dye based FLIPR assay.
Assay [3] shares this target. The experiment in a line: Agonist activity at N-terminal rat ST3 receptor-fused full length human TAS2R7 transiently expressed in HEK293T cells co-expressing Galpha16gust44 assessed as increase in intracellular calcium level by measuring deltaF/F0 ratio level at 2.60 mM by Fluo-4AM dye based FLIPR assay.
Assay [4] has the same target. The experiment in a line: Agonist activity at N-terminal rat ST3 receptor-fused full length human TAS2R7 stably expressed in HEK293T cells co-expressing Galpha16gust44 assessed as increase in intracellular calcium level by measuring deltaF/F0 ratio level at 0.16 mM by Fluo-4AM dye based FLIPR assay (reference value: 0.15 +/- 0.06).
For assay [5] the target is unchanged. The experiment in a line: Agonist activity at N-terminal rat ST3 receptor-fused full length human TAS2R7 stably expressed in HEK293T cells co-expressing Galpha16gust44 assessed as increase in intracellular calcium level by measuring deltaF/F0 ratio level at 0.02 mM by Fluo-4AM dye based FLIPR assay (reference value: 0.08 +/- 0.03).
Assay [6] has the same target. Kind of assay: Agonist activity at N-terminal rat ST3 receptor-fused full length human TAS2R7 transiently expressed in HEK293T cells co-expressing Galpha16gust44 assessed as increase in intracellular calcium level by measuring deltaF/F0 ratio level at 0.02 mM by Fluo-4AM dye based FLIPR assay.
Assay [7] has the same target. The experiment in a line: Agonist activity at N-terminal rat ST3 receptor-fused full length human TAS2R7 transiently expressed in HEK293T cells co-expressing Galpha16gust44 assessed as increase in intracellular calcium level by measuring deltaF/F0 ratio level at 0.33 mM by Fluo-4AM dye based FLIPR assay.
The target is the same in assay [8]. The experiment in a line: Agonist activity at N-terminal rat ST3 receptor-fused full length human TAS2R7 stably expressed in HEK293T cells co-expressing Galpha16gust44 assessed as increase in intracellular calcium level by measuring deltaF/F0 ratio level at 0.08 mM by Fluo-4AM dye based FLIPR assay (reference value: 0.1 +/- 0.04).
Assay [9] shares this target. Kind of assay: Agonist activity at N-terminal rat ST3 receptor-fused full length human TAS2R7 transiently expressed in HEK293T cells co-expressing Galpha16gust44 assessed as increase in intracellular calcium level by measuring deltaF/F0 ratio level at 0.65 mM by Fluo-4AM dye based FLIPR assay.
Assay [10] shares this target. The experiment in a line: Agonist activity at N-terminal rat ST3 receptor-fused full length human TAS2R7 transiently expressed in HEK293T cells co-expressing Galpha16gust44 assessed as increase in intracellular calcium level by measuring deltaF/F0 ratio level at 1.3 mM by Fluo-4AM dye based FLIPR assay.
Assay [11] has the same target. Kind of assay: Agonist activity at N-terminal rat ST3 receptor-fused full length human TAS2R7 transiently expressed in HEK293T cells co-expressing Galpha16gust44 assessed as increase in intracellular calcium level by measuring deltaF/F0 ratio level by Fluo-4AM dye based FLIPR assay.
The target is the same in assay [12]. Kind of assay: Agonist activity at N-terminal rat ST3 receptor-fused full length human TAS2R7 stably expressed in HEK293T cells co-expressing Galpha16gust44 assessed as increase in intracellular calcium level by measuring deltaF/F0 ratio level at 0.01 mM by Fluo-4AM dye based FLIPR assay (reference value: 0.09 +/- 0.04).
Assay [13] shares this target. The experiment in a line: Agonist activity at N-terminal rat ST3 receptor-fused full length human TAS2R7 transiently expressed in HEK293T cells co-expressing Galpha16gust44 assessed as increase in intracellular calcium level by measuring deltaF/F0 ratio level at 0.01 mM by Fluo-4AM dye based FLIPR assay.
For assay [14] the target is unchanged. Kind of assay: Agonist activity at N-terminal rat ST3 receptor-fused full length human TAS2R7 stably expressed in HEK293T cells co-expressing Galpha16gust44 assessed as increase in intracellular calcium level by measuring deltaF/F0 ratio level at 0.65 mM by Fluo-4AM dye based FLIPR assay (reference value: 0.41 +/- 0.14).
For assay [15] the target is unchanged. Kind of assay: Agonist activity at N-terminal rat ST3 receptor-fused full length human TAS2R7 stably expressed in HEK293T cells co-expressing Galpha16gust44 assessed as increase in intracellular calcium level by measuring deltaF/F0 ratio level at 0.33 mM by Fluo-4AM dye based FLIPR assay (reference value: 0.34 +/- 0.06).
For assay [16] the target is unchanged. Kind of assay: Agonist activity at N-terminal rat ST3 receptor-fused full length human TAS2R7 stably expressed in HEK293T cells co-expressing Galpha16gust44 assessed as increase in intracellular calcium level by measuring deltaF/F0 ratio level at 0.04 mM by Fluo-4AM dye based FLIPR assay (reference value: 0.08 +/- 0.03).
Assay [17] shares this target. Kind of assay: Agonist activity at N-terminal rat ST3 receptor-fused full length human TAS2R7 stably expressed in HEK293T cells co-expressing Galpha16gust44 assessed as increase in intracellular calcium level by measuring deltaF/F0 ratio level at 2.60 mM by Fluo-4AM dye based FLIPR assay (reference value: 0.65 +/- 0.13).
The target is the same in assay [18]. The experiment in a line: Agonist activity at N-terminal rat ST3 receptor-fused full length human TAS2R7 transiently expressed in HEK293T cells co-expressing Galpha16gust44 assessed as increase in intracellular calcium level by measuring deltaF/F0 ratio level at 0.16 mM by Fluo-4AM dye based FLIPR assay.
Assay [19] shares this target. Kind of assay: Agonist activity at N-terminal rat ST3 receptor-fused full length human TAS2R7 stably expressed in HEK293T cells co-expressing Galpha16gust44 assessed as increase in intracellular calcium level by measuring deltaF/F0 ratio level at 1.3 mM by Fluo-4AM dye based FLIPR assay (reference value: 0.53 +/- 0.1).

For the compound `CC(C)[C@@H]1CC[C@@H](C)C[C@H]1O`, the Ratio in [1] came out at 0.1; in assay [2], 0.08; in assay [3], 0.65; in assay [4], 0.23; in [5], 0.09; in [6] it was 0.08. The Ratio in assay [7] was determined as 0.34; in [8] it was 0.12; in assay [9], 0.41; in assay [10], 0.53; in [12], 0.09; in [13] it was 0.09. The Ratio in assay [14] came to 1.03; in [15], 0.61; in assay [16] it was 0.13; in [17], 0.92; in assay [18], 0.15; in assay [19], 1.16. Moreover, the Activity entry in [11] was “Dose-dependent effect”.

On to `CC(C)[C@H]1CC[C@H](C)C[C@@H]1O`, for which the Activity result in assay [11] was “Dose-dependent effect”.
